Columns and labels:
[1] = Toxicity testing in non-tumor-bearing mice; assay type: in vivo, C57BL/6J mice
Protocol: For syngeneic tumor models, 5 × 10^5 cells MC38, Yumm1.7, and Yummer1.7, 1 × 10^5 cells of B16F10 were resuspended in PBS and implanted into 7–9-wk-old mice subcutaneously. For the tumor inhibition experiment, mice were treated with 1.8 mg/kg NR-V04 or 0.75 mg/kg celastrol by i.p. injection twice weekly. For the immune profile experiment, once tumors reached 0.5 cm in diameter, mice were treated with 1.8 mg/kg NR-V04 by i.p. injection twice weekly. For the toxicity experiment, male and female non-tumor-bearing mice were treated with 2 mg/kg NR-V04 for two doses in the first week and 5 mg/kg for another two doses in the second week. Blood samples were taken from the submandibular (facial) vein before each treatment and 42 days later for hematological analysis, and body weight was measured twice per week up to day 42. Mice were euthanized in accordance with the IACUC protocol once the largest tumors reached 2 cm in diameter, and tissues were collected for further analysis.
Mouse blood was prepared in microcentrifuge tubes containing PBS with 10 mM EDTA. Blood indices were analyzed using an automated hematology analyzer (Element HT5; Heska).
For H&E staining, mouse tissues were fixed in 10% formalin (SF98-4; Thermo Fisher Scientific) processed in the University of Florida Molecular Pathology Core. H&E staining was conducted using standard procedures. The sections were hydrated through xylene and a series of ethanol, followed by staining with H&E on slides.

NR4A3 = biological target: T1, NR4A3 (Homo sapiens, UniProt Q92570); test: NR4A3 protein level after treatment (immunoblotting); assay type: cell-based
T1 construct: endogenous in cells
T1 sequence (Q92570 whole entry): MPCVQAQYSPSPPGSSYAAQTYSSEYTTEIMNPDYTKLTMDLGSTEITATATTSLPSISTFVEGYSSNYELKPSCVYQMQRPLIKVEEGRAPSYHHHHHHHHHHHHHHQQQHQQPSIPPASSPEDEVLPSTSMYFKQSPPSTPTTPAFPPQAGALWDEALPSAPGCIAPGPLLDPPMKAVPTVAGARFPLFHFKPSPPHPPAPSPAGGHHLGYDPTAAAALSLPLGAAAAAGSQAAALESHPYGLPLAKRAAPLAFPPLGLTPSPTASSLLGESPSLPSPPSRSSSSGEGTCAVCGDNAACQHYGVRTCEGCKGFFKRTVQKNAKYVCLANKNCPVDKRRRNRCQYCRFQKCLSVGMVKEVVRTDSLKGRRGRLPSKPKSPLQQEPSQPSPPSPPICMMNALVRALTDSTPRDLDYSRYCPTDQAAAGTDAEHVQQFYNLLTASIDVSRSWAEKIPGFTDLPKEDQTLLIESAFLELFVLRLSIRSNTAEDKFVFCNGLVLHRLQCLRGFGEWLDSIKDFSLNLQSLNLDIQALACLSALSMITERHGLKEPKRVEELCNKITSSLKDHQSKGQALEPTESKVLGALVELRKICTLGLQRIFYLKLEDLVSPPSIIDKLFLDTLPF
Protocol: (§1) Samples were lysed using radioimmunoprecipitation assay buffer (RIPA) lysis buffer (150 mM NaCl, 5 mM EDTA, 50 mM Tris pH 8.0, 0.5% sodium deoxycholate, 1% NP-40, 0.1% SDS) supplemented with 1 mM dithiothreitol and protease inhibitors. The lysates were separated by SDS-PAGE and analyzed using standard western blotting procedures ([Khan et al., 2019]). Antibodies: human NR4A1 (ab153914, 1:1,000; Abcam), mouse NR4A1 (14-5965-82, 1:1,000; Invitrogen), NR4A2 (AV38753, 1:1,000; Sigma-Aldrich), NR4A3 (TA804893, 1: 1,000; Thermo Fisher Scientific), VHL (68547, 1:1,000; Cell Signaling), β-actin (13E5, 1:5,000; Cell Signaling), β-tubulin (9F3, 1: 5,000; Cell Signaling), and GAPDH (D16H11, 1: 5,000; Cell Signaling) were employed for protein detection.

VHL = biological target: T2, VHL (Homo sapiens, UniProt P40337); test: VHL protein level after treatment (immunoblotting); assay type: cell-based; settings: human melanoma cell lines, 16 h
T2 construct: endogenous in cells; host or cells: CHL-1, A375, WM164, M229 human melanoma cells
T2 sequence (P40337 whole entry): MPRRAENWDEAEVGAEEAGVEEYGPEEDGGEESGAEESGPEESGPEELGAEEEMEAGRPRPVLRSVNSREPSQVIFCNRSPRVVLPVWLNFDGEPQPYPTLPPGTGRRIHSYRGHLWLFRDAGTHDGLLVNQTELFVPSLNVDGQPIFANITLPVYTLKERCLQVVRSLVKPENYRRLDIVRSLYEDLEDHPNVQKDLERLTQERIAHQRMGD
Protocol: as §1

human CD8^+ Texh cells = test: T cell exhaustion in vitro, human PBMC-derived T cells; assay type: cell-based; settings: 500 nM, 48 h
Protocol: We conducted experiments involving the isolations and treatments of CD8^+ T cells from both OT-1 mice (C57BL/6-Tg(TcraTcrb)1100Mjb/J; Jackson Laboratories) and T cells from human PBMCs. CD8^+ T cells were isolated from OT-1 mice using the EasySep Mouse CD8 T Cell Isolation Kit, followed by daily treatment with 10 ng/ml ovalbumin (257–264) (S7951-1MG; Sigma-Aldrich) for specified durations. After 3 days of ovalbumin treatment, OT-1 CD8^+ T cells were activated, and after 7 days of treatment, they reached a state of exhaustion. Human T cells were isolated from PBMCs using the EasySep Human CD3 Positive Selection Kit II (17851; STEMCELL) and cultured with Dynabeads (Cell/Dynabeads: 1:1, A56992; Thermo Fisher Scientific) for 3 days to induce activation and for 7 days to induce exhaustion. Both mouse and human T cells received a treatment of 500 nM NR-V04 2 days prior to harvesting. To characterize the T cell subtypes, we employed specific flow cytometry antibodies and conducted flow cytometry analysis.
Mouse tumors were excised and ∼200 mg of tumor tissue was enzymatically and mechanically digested using the mouse Tumor Dissociation Kit (Miltenyi Biotec) to obtain a single-cell suspension. […] Flow cytometry was performed on a three laser Cytek Aurora Cytometer (Cytek Biosciences) and analyzed using FlowJo software (BD Biosciences). […]

CC1=C(O)C(=O)C=C2C1=CC=C1[C@@]2(C)CC[C@@]2(C)[C@@H]3C[C@](C)(C(=O)NCCOCCOCCOCCOCC(=O)N[C@H](C(=O)N4C[C@H](O)C[C@H]4C(=O)N[C@@H](C)c4ccc(-c5scnc5C)cc4)C(C)(C)C)CC[C@]3(C)CC[C@]12C [NR-V04]
histology (H&E) of kidney, liver and small intestine ([1]; male and female mice, day 42): did not induce tissue damage | body weight ([1]; male and female mice, two doses of 2 mg/kg and two doses of 5 mg/kg over 2 wk, 42 days): no significant change in body weight | hematological parameters (complete blood counts) ([1]; two doses of 2 mg/kg and two doses of 5 mg/kg, day 0, 7, 14, 42): no significant changes in hematological parameters | NR4A3 protein level (selectivity in the NR4A family) (NR4A3): sparing NR4A2 and NR4A3 | VHL protein level (VHL): accumulation of VHL protein | CD8^+ Texh cells (CD8^+CTLA-4^+Tim3^+) (human CD8^+ Texh cells): significant reduction in CD8^+ Texh cells
